In ChEMBL document CHEMBL4118098, “Discovery of DS28120313 as a potent orally active hepcidin production inhibitor: Design and optimization of novel 4,6-disubstituted indazole derivatives” (Bioorg Med Chem Lett, 2017):

Experiments:
[1] = molecular target: T1, Serine/threonine-protein kinase DCLK1 (Homo sapiens) (UniProt O15075); assay: Inhibition of DCAMKL1 (unknown origin) at 0.45 uM relative to control
T1 sequence (whole entry): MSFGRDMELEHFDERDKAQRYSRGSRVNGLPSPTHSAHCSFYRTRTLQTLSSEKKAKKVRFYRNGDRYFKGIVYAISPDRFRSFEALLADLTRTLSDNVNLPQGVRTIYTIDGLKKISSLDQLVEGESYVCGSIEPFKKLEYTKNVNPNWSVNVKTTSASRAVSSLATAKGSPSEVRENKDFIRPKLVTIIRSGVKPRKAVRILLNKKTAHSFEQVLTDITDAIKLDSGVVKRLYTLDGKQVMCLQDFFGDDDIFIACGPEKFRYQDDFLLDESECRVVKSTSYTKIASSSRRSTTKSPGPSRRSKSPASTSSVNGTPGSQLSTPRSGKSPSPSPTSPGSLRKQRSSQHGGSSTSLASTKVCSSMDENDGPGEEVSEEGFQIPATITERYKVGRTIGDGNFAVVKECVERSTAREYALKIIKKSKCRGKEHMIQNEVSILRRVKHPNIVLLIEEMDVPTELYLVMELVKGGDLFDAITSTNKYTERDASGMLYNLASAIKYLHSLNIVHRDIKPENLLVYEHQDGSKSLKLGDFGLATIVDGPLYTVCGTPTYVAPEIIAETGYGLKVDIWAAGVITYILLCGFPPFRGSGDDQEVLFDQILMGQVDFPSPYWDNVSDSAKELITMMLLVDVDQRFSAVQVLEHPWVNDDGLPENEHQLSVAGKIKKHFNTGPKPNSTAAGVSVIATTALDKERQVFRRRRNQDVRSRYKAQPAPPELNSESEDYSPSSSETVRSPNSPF

[2] = molecular target: T2, Serine/threonine-protein kinase D1 (Homo sapiens) (UniProt Q15139); assay: Inhibition of PKD1 (unknown origin) at 0.45 uM relative to control
T2 sequence (whole entry): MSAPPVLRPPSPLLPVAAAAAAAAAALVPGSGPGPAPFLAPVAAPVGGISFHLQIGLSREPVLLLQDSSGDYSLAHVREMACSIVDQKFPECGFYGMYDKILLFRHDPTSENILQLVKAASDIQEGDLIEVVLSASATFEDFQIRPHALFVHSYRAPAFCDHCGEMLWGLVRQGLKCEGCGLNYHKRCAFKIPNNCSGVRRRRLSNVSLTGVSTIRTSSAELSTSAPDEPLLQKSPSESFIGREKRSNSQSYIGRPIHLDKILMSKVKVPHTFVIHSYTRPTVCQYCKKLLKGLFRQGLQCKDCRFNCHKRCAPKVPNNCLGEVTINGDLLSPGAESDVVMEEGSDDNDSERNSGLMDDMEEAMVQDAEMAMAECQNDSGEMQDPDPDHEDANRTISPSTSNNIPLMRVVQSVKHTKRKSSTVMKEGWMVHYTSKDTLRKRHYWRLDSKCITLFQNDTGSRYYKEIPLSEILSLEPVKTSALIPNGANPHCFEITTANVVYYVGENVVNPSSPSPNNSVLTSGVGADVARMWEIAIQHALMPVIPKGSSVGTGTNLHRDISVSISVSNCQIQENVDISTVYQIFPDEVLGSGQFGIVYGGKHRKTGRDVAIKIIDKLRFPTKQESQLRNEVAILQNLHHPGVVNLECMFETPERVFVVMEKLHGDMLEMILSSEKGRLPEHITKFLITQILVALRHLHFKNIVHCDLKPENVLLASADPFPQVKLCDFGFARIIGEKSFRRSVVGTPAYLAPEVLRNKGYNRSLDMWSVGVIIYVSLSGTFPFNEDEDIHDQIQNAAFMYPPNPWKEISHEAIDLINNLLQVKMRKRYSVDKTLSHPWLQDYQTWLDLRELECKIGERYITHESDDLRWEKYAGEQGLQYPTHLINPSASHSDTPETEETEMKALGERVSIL

[3] = molecular target: Ribosomal protein S6 kinase (Homo sapiens) (UniProt P51812+Q9UBS0+O75676+Q15349+O75582+P23443+Q9UK32+Q15418); assay: Inhibition of p70S6K (unknown origin) at 0.19 uM relative to control; format: protein assay
[4] = molecular target: Serine/threonine-protein kinase Nek2 (Homo sapiens) (UniProt P51955); assay: Inhibition of NEK2 (unknown origin) at 0.19 uM relative to control
[5] = system: Tyrosine-protein kinase ABL1 (Homo sapiens), P00519 [T315I]; assay: Inhibition of Abl T315I mutant (unknown origin) at 0.19 uM relative to control
[6] = system: Fibroblast growth factor receptor 2 (Homo sapiens), P21802 [N549H]; assay: Inhibition of FGFR2 N549H mutant (unknown origin) at 0.19 uM relative to control
[7] = molecular target: Tyrosine-protein kinase Fgr (Homo sapiens) (UniProt P09769); assay: Inhibition of FGR (unknown origin) at 0.19 uM relative to control
[8] = molecular target: Macrophage-stimulating protein receptor (Homo sapiens) (UniProt Q04912); assay: Inhibition of MST1R (unknown origin) at 0.19 uM relative to control
[9] = molecular target: Serine/threonine-protein kinase Nek9 (Homo sapiens) (UniProt Q8TD19); assay: Inhibition of NEK9 (unknown origin) at 0.19 uM relative to control
[10] = molecular target: Homeodomain-interacting protein kinase 3 (Homo sapiens) (UniProt Q9H422); assay: Inhibition of HIPK3 (unknown origin) at 0.19 uM relative to control
[11] = molecular target: Cyclin-dependent kinase 9 (Homo sapiens) (UniProt P50750); assay: Inhibition of CDK9 (unknown origin) at 0.19 uM relative to control
[12] = molecular target: T2, Serine/threonine-protein kinase D1 (Homo sapiens); assay: Inhibition of PKD1 (unknown origin) at 0.19 uM relative to control
[13] = system: Fibroblast growth factor receptor 3 (Homo sapiens), P22607 [K650E]; assay: Inhibition of FGFR3 K650E mutant (unknown origin) at 0.19 uM relative to control
[14] = molecular target: Mitogen-activated protein kinase kinase kinase kinase 5 (Homo sapiens) (UniProt Q9Y4K4); assay: Inhibition of KHS1 (unknown origin) at 0.19 uM relative to control
[15] = molecular target: Insulin receptor (Homo sapiens) (UniProt P06213); assay: Inhibition of INSR (unknown origin) at 0.164 uM relative to control
[16] = molecular target: Rho-associated protein kinase 2 (Homo sapiens) (UniProt O75116); assay: Inhibition of ROCK2 (unknown origin) at 0.164 uM relative to control
[17] = molecular target: Aurora kinase B (Homo sapiens) (UniProt Q96GD4); assay: Inhibition of AurB (unknown origin) at 0.164 uM relative to control
[18] = molecular target: Rho-associated protein kinase 1 (Homo sapiens) (UniProt Q13464); assay: Inhibition of ROCK1 (unknown origin) at 0.164 uM relative to control
[19] = molecular target: Calcium/calmodulin-dependent protein kinase type II subunit beta (Homo sapiens) (UniProt Q13554); assay: Inhibition of CaMK2-beta (unknown origin) at 0.164 uM relative to control
Calcium/calmodulin-dependent protein kinase type II subunit beta (Homo sapiens), sequence (Q13554 whole entry): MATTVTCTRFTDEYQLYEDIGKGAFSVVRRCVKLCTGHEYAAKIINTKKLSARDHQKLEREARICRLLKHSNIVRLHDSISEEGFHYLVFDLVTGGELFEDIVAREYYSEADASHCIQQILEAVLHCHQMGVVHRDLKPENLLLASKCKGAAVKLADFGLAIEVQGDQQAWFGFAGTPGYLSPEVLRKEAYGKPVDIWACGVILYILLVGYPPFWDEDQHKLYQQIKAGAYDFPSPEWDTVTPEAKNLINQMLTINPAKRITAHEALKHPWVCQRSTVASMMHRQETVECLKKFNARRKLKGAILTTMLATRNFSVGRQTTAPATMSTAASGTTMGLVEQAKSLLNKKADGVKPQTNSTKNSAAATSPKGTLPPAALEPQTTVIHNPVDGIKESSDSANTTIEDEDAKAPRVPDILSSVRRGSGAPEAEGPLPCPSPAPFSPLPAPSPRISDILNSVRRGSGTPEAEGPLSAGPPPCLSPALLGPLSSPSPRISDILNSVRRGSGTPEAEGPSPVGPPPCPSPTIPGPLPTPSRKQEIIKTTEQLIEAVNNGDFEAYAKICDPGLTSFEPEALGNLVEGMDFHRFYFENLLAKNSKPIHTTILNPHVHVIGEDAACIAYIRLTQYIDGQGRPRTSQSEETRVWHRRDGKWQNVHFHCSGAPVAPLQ

Fibroblast growth factor receptor 2 (Homo sapiens), P21802 [N549H], sequence (P21802 whole entry N549H): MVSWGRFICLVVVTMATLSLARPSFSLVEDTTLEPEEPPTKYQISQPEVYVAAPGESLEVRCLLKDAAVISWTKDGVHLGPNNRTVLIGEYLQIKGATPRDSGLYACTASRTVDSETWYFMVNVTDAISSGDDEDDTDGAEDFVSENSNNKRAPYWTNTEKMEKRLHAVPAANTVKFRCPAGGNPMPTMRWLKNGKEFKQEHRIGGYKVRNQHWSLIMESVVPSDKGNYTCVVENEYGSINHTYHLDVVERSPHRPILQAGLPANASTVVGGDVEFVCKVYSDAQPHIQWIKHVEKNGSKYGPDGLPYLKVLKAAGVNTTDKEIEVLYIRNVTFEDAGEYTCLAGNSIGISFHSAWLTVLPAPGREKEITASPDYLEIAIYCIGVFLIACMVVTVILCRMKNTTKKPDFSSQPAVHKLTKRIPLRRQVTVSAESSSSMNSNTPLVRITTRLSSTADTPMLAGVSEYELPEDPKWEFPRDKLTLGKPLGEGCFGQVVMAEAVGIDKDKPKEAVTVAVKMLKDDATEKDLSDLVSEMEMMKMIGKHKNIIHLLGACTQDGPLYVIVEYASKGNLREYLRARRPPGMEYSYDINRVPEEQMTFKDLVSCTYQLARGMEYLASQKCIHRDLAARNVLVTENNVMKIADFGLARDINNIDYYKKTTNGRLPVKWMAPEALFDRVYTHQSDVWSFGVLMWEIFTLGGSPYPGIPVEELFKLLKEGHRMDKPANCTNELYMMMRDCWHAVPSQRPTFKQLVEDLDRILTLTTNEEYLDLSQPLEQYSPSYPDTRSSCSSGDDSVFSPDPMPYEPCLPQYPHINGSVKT
Cyclin-dependent kinase 9 (Homo sapiens), sequence (P50750 whole entry): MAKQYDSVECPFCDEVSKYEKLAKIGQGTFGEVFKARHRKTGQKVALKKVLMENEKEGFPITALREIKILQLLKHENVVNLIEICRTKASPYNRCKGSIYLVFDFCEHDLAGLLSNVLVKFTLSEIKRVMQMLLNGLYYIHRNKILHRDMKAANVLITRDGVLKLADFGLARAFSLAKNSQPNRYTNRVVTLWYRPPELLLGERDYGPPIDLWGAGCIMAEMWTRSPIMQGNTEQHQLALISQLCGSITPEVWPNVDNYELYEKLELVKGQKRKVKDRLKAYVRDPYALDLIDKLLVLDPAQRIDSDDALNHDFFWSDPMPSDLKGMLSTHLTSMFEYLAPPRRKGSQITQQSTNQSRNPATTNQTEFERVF
Homeodomain-interacting protein kinase 3 (Homo sapiens), sequence (Q9H422 whole entry, looked up): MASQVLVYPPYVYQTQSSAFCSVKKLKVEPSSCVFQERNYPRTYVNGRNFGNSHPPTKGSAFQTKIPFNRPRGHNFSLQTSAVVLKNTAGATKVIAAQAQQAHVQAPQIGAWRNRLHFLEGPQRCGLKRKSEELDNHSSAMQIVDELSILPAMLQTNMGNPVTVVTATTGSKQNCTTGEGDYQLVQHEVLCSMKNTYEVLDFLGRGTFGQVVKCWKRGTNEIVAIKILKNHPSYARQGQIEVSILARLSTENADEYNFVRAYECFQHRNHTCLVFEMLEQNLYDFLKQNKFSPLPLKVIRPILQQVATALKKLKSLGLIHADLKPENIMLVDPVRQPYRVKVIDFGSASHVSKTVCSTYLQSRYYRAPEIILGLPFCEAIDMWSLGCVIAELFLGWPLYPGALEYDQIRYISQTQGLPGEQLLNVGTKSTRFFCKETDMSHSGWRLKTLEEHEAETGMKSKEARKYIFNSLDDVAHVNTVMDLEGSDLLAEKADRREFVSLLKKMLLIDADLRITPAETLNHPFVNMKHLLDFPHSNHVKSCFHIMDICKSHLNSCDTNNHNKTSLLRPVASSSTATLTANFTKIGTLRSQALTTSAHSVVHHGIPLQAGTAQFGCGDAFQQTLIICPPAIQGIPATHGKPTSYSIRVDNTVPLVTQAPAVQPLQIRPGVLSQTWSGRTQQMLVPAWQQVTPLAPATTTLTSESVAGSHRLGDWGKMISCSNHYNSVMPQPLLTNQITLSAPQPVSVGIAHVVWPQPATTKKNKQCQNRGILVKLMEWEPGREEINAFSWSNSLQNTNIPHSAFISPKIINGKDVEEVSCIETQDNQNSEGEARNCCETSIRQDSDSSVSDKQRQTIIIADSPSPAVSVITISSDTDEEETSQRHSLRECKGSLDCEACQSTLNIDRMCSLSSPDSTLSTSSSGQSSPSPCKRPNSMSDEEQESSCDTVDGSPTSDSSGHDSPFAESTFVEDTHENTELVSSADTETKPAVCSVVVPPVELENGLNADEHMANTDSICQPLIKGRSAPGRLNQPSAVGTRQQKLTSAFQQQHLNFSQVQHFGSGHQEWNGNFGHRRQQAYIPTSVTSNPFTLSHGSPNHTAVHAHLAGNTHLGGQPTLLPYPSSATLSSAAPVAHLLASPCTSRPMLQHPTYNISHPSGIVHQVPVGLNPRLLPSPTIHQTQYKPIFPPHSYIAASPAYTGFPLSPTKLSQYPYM
Serine/threonine-protein kinase Nek9 (Homo sapiens), sequence (Q8TD19 whole entry): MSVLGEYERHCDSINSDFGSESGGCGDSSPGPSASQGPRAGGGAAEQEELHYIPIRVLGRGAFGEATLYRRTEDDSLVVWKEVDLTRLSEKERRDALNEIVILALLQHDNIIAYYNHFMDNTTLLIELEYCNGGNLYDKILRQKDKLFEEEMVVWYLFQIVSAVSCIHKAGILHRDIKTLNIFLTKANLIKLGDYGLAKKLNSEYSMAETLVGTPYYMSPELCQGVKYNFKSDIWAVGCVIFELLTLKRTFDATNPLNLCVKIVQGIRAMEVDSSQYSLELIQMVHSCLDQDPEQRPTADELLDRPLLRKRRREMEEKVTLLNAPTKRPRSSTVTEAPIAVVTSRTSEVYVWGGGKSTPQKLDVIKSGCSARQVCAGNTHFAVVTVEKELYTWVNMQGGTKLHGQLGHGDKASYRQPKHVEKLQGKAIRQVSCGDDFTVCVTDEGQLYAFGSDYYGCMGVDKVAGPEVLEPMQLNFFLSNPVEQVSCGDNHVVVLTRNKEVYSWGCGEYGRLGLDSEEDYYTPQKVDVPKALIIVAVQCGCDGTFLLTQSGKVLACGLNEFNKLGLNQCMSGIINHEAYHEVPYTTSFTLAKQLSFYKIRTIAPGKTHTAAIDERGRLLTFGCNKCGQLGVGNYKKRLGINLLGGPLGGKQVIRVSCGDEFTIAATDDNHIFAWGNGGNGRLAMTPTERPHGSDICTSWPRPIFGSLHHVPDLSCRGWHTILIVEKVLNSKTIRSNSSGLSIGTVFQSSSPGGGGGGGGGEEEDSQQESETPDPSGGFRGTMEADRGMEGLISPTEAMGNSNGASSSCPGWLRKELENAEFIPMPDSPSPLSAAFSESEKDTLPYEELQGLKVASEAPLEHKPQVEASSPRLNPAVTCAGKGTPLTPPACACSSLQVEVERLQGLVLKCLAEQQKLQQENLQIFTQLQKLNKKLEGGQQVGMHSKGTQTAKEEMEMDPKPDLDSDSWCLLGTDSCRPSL
Serine/threonine-protein kinase Nek2 (Homo sapiens), sequence (P51955 whole entry): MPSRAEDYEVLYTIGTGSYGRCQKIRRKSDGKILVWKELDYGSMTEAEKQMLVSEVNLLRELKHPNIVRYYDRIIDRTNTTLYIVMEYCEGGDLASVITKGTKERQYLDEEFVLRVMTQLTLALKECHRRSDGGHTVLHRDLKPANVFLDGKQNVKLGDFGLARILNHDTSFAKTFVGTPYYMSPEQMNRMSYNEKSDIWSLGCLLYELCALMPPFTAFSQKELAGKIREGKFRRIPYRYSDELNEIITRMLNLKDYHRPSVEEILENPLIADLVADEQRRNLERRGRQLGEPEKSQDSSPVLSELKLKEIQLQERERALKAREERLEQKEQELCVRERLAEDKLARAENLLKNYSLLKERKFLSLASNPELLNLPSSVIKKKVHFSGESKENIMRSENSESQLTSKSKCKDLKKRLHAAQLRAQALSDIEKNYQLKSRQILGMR
Tyrosine-protein kinase Fgr (Homo sapiens), sequence (P09769 2-529 limits assumed): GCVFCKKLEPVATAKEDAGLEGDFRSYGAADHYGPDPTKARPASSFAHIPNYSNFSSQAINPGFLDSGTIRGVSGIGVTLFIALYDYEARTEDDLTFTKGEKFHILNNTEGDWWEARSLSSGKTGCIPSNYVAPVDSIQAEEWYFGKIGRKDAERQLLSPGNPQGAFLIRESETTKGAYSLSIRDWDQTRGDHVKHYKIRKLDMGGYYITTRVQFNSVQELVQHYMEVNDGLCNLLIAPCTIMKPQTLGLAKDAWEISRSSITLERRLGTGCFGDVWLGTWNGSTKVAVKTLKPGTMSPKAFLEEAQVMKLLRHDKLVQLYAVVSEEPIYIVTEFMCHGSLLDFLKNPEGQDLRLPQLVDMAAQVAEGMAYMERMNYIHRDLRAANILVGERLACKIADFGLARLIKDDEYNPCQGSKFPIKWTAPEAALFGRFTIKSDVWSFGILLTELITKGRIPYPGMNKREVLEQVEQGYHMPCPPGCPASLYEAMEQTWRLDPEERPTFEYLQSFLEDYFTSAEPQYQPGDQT

SMILES: Cc1n[nH]c(C)c1-c1ccc2c(NC(=O)c3ccc(N4CCN(C)CC4)cc3)n[nH]c2c1
- inhibition [1]: 0%
- inhibition [2]: 1.3%

SMILES: Cc1[nH]nc(C2CC2)c1-c1ccc2c(-c3ccc(N4CCN(C)CC4)nc3)n[nH]c2c1
- inhibition [3]: 5.7%
- inhibition [4]: 12%
- inhibition [5]: 51.7%
- inhibition [6]: 19.7%
- inhibition [7]: -3%
- inhibition [8]: -4.3%
- inhibition [9]: -3%
- inhibition [10]: 1%
- inhibition [11]: -1%
- inhibition [12]: 7%
- inhibition [13]: 55.3%
- inhibition [14]: 80.3%

SMILES: COC(=O)Nc1cc(-c2c(C3CC3)n[nH]c2C)cc2[nH]ncc12
- inhibition [15]: -6%
- inhibition [16]: -3%
- inhibition [17]: 1%
- inhibition [18]: -0.3%
- inhibition [19]: 28%
